Data set [1] deals with CGRP (Calcitonin Gene-Related Peptide). Conditions: isolated rat skin; Averbeck et al. 2003; cited from earlier work.
Data set [2] deals with PGE2 (prostaglandin E2). The data set can be described thus: in vitro whole blood culture test system, zymosan activation: PGE2 formation. It counts as cell-based. Conditions: human whole blood from 3 donors, 2 hours pre-incubation with 0.39, 1.56, 6.25, 25 and 100 µg tarenflurbil/ml, then zymosan. How it is done:
(§1) In an in vitro whole blood culture test system with human whole blood from 3 donors in each case, pre-incubation was carried out for 2 hours with 0.39, 1.56, 6.25, 25 and 100 µg tarenflurbil/ml whole blood before activation with zymosan (agent for producing sterile inflammations) took place. In total the following 37 parameters were measured which allow a broad overview of the reaction of the leucocytes under inflammatory conditions and thus also of the effects of tarenflurbil in such an environment: • 1. Amphiregulin • 2. Brain-derived neurotrophic factor (BDNF) • 3. Interleukin-1 alpha (IL-1α) • 4. IL-1β • 5. IL-1 receptor antagonist (IL-1Ra) • 6. IL-2 • 7. IL-3 • 8. IL-4 • 9. IL-5 • 10. IL-6 • 11. IL-7 • 12. IL-8 • 13. IL-10 • 14. IL-12, p40 subunit (IL-12p40) • 15. IL-12p70 • 16. IL-15 • 17. IL-17 • 18. IL-18 • 19. IL-23 • 20. Epiregulin • 21. Eotaxin (Eot.) • 22. Factor VII (F. VII) • 23. Granulocyte-monocytes colony stimulating factor (GM-CSF) • 24. Interferon gamma (IFNγ) • 25. Intercellular adhesion molecule-1 (ICAM-1) • 26. Monocyte chemoattractand protein-1 (MCP-1) • 27. Migration inhibitory protein-1 alpha (MIP-1α) • 28. MIP-1ß • 29. Matrix-metalloproteinase-2 (MMP-2) • 30. MMP-3 • 31. MMP-9 • 32. Oncostatin M (OSM) • 33. Stem-cell factor (SCF) • 34. […] (TGFα) • 35. Tumor necrosis factor alpha (TNFα) • 36. TNFß • 37. Vascular endothelial growth factor (VEGF)

The subject of data set [3] is LT-C4/E4/D4. The experiment in a line: in vitro whole blood culture test system, zymosan activation: leukotriene synthesis. It counts as cell-based. Conditions: human whole blood, in allergy sufferers (Donor B), 0.39-100 µg tarenflurbil/ml, Figure 1.
Method: In an in vitro whole blood culture test system with human whole blood from 3 donors in each case, pre-incubation was carried out for 2 hours with 0.39, 1.56, 6.25, 25 and 100 µg tarenflurbil/ml whole blood before activation with zymosan (agent for producing sterile inflammations) took place. […] A group determination of LT-C4/E4/D4 was carried out.
For data set [4], the system named is TGFß (transforming growth factor ß). The experiment in a line: in vitro whole blood culture test system, zymosan activation: TGFß release. In kind it is cell-based. The following applies: human whole blood from 3 donors, 0.39-100 µg tarenflurbil/ml. The protocol:
as §1

Data set [5] has as its system BDNF (brain-derived neurotrophic factor). The experiment in a line: in vitro whole blood culture test system, zymosan activation: BDNF release. It counts as cell-based. Conditions: human whole blood from 3 donors, 0.39-100 µg tarenflurbil/ml.
Method: In an in vitro whole blood culture test system with human whole blood from 3 donors in each case, pre-incubation was carried out for 2 hours with 0.39, 1.56, 6.25, 25 and 100 µg tarenflurbil/ml whole blood before activation with zymosan (agent for producing sterile inflammations) took place. In total the following 37 parameters were measured which allow a broad overview of the reaction of the leucocytes under inflammatory conditions and thus also of the effects of tarenflurbil in such an environment: • 1. […] Brain-derived neurotrophic factor (BDNF) • 3.
In data set [6] the test system is UV erythema (sunburn). The data set can be described thus: UV erythema test, twice the minimum erythema dose (Example 2). In kind it is in vivo, human. The following applies: four test subjects, skin of the back, topical spray 0.1, 0.25, 1 and 4% (w/w), visual score and spectroscopic colour measurement, 0-48 hours. How it is done:
The clinical-pharmacological studies of the following Examples 2 to 4 were carried out on healthy adults as model for non-immunological inflammation. In a preliminary test on the skin of the back involving a group of four test subjects, the "minimum erythema dose" following irradiation with a standardized daylight irradiation apparatus ([…]) was established. In the main test 8 areas of the skin of the back of each subject were irradiated with twice the "minimum erythema dose" and then treated with tarenflurbil spray with 0.1, 0.25, 1 and 4% tarenflurbil (w/w) as well as the associated placebo formulations and the comparison preparations (triamcinolone acetonide 0.2% (w/w); mometasone furoate solution 0.1% (w/w)). […] The effect of the test preparation with the highest tarenflurbil concentration was much more marked than with the comparison solutions triamcinolone acetonide 0.2% (w/w) or mometasone furoate 0.1% (w/w).

For data set [7] the following is noted: in mice; Leipold et al., Chirality 2004; cited from earlier work.
For data set [8] the following is noted: in humans; Geisslinger et al., J Clin Pharmacol. 1996; cited from earlier work.
The test system of data set [9] is isolated rat skin. The following applies: Pethö et al. 2001, the authors attributed the effect to S-flurbiprofen impurity; cited from earlier work.
The subject of data set [10] is Alzheimer's disease. The following applies: extensive clinical Phase III studies; WO 2005/065069, Imbimbo 2009; cited from earlier work.

In the case of `C[C@H](C(=O)O)c1ccc(-c2ccccc2)c(F)c1` [S-flurbiprofen], the “inhibition of the release of CGRP” value in data set [1] is “effective”.

Turning to `C[C@@H](C(=O)O)c1ccc(-c2ccccc2)c(F)c1` [tarenflurbil, (R)-2-(3-fluoro-4-phenylphenyl)propionic acid], the “PGE2 (prostaglandin E2) formation” value in data set [2] is reported as “dose-dependent reduction”. The “leukotriene synthesis (LT-C4/E4/D4)” value in data set [3] is listed as “dose-dependent reduction”. The “TGFß (transforming growth factor ß) release” value in data set [4] was “dose-dependent reduction”. For the same compound, the “BDNF (brain-derived neurotrophic factor) release” value in data set [5] is given as “dose-dependent reduction”. Further, the “degree of erythema (UV erythema)” value in data set [6] is recorded as “dose-dependent reduction”. The “bioinversion into S-flurbiprofen” value in data set [7] is listed as “considerable bioinversion”. Moreover, the “conversion to S-flurbiprofen” value in [8] is “not to be converted to S-flurbiprofen”. Moreover, in data set [9], the “effect on bradykinin-induced nociceptor sensitization to heat” value is given as “effective”. Further, the “inhibition of the release of CGRP” value in [1] is on record as “ineffective”. For the same compound, the “efficacy against Alzheimer's disease” value in data set [10] was “ineffective”.
